Measured values as given in patent US20240252527A9, “NUCLEOSIDE DRUGS FOR THE TREATMENT OR PREVENTION OF CORONAVIRUS INFECTION AND THEIR USES” (Miracure Biotechnology Limited, priority 2022, published 2024).
Where two headings read alike, the source gives them in different places.

Key:
[1] = tested on: OC43; experiment: OC43 Huh7 CPE assay (cytopathic experiment); format: cell-based, coronavirus OC43 (HCoV-OC43); settings: for EC50: read-out: OC43 Huh7 CPE assay (μM) EC50; for EC90: read-out: OC43 Huh7 CPE assay (μM) EC90
Protocol: (§1) Cells were seeded into microplates at a certain density and cultured overnight in a incubator at 5% CO2, 37° C. The next day, double-diluted compound and virus were added. It was set up a cell control group (cells without treatment with a compound or virus infection), a virus control group (cells infected with virus, no compound treatment) and a culture medium control group (medium only). Cells were cultured in the incubator for 3 days (229E) or 7 days (OC43). Cytotoxicity experiments were performed under the same conditions as antiviral experiments, but without virus infection. Cell viability was tested using a cell viability assay kit Cell Titer Glo (Promega).
(§2) The antiviral activity and cytotoxicity of the compounds were expressed by the inhibition rate (%) and cell viability (%) of the compounds against virus-induced cytopathic effects at different concentrations, respectively. Nonlinear fitting analysis on the inhibition rate and cell viability of the compounds were carried out with the GraphPad Prism, and the half effective concentration (EC50), the […] effective concentration (EC90), the half cytotoxic concentration (CC50) and the 90% cytotoxic concentration of the compound […] values were calculated.

[2] = tested on: 229E; experiment: 229E MRC5 CPE assay (cytopathic experiment); format: cell-based, coronavirus 229E (HCoV-229E)
Protocol: as §1, §2

[3] = Betacoronavirus 1, Huh-7, 168 h, Huh7 cells, OC43 virus, 7 days, Cell Titer Glo
[4] = Human coronavirus 229E, MRC5, 72 h; read-out: 229E MRC5 CPE assay (μM) EC50
[5] = Human coronavirus 229E, MRC5, 72 h; read-out: 229E MRC5 CPE assay (μM) EC90
[6] = Betacoronavirus 1, OC43, Huh-7, 168 h
[7] = Human coronavirus 229E, MRC5, 72 h, read-out: 229E MRC5 CPE assay (μM) EC50
[8] = Human coronavirus 229E, MRC5, 72 h, read-out: 229E MRC5 CPE assay (μM) EC90
[9] = Huh7 cells, OC43 virus, 7 days, Cell Titer Glo

Compound	EC50 [2, 4] [µM]	EC90 [2, 5] [µM]	EC50 [1, 6] [µM]	EC90 [1, 6] [µM]	EC50 [2, 7] [µM]	EC90 [2, 8] [µM]	further results
CCC(CC)COC(=O)[C@H](C)NP(=O)(OC[C@H]1O[C@@](C#N)(c2ccc3c(N)ncnn23)[C@H](O)[C@@H]1O)Oc1cc(N)ccc1C(=O)OC (stereo partly shown) [Compound 128]	> 0.5	> 0.5					EC50 [1, 3]: > 0.5 µM; EC90 [1, 3]: > 0.5 µM
CCCC(CCC)C(=O)OCO[P@@]1(=O)OC[C@H]2O[C@@](C#N)(c3ccc4c(N)ncnn34)[C@H](O)[C@@H]2O1 [Compound 129]			< 0.1	> 0.5	< 0.1	< 0.1	
CCCC(CCC)C(=O)OCO[P@]1(=O)OC[C@H]2O[C@@](C#N)(c3ccc4c(N)ncnn34)[C@H](O)[C@@H]2O1 [Compound 130]			< 0.1	0.1 to 0.5	< 0.1	0.1 to 0.5	
CCCC(CCC)C(=O)OCO[P@](=O)(N[C@@H](Cc1ccccc1)C(=O)OCC)OC[C@H]1O[C@@](C#N)(c2ccc3c(N)ncnn23)[C@H](O)[C@@H]1O [Compound 137]			< 0.1	< 0.1	< 0.1	0.1 to 0.5	
CCCCOC(=O)[C@H](Cc1ccccc1)N[P@@](=O)(OCOC(=O)C(CCC)CCC)OC[C@H]1O[C@@](C#N)(c2ccc3c(N)ncnn23)[C@H](O)[C@@H]1O [Compound 138]			< 0.1	< 0.1	< 0.1	0.1 to 0.5	
CCCC(CCC)C(=O)OCO[P@](=O)(N[C@@H](Cc1ccccc1)C(=O)OCC(CC)CC)OC[C@H]1O[C@@](C#N)(c2ccc3c(N)ncnn23)[C@H](O)[C@@H]1O [Compound 139]			< 0.1	< 0.1	< 0.1	0.1 to 0.5	
CCC(CC)COC(=O)[C@H](C)N[P@@]1(=O)OC[C@H]2O[C@@](C#N)(c3ccc4c(N)ncnn34)[C@H](O)[C@@H]2O1 [Compound 140]			> 0.5	> 0.5	> 0.5	> 0.5	
CCCC(CCC)C(=O)OC(C)O[P@]1(=O)OC[C@H]2O[C@@](C#N)(c3ccc4c(N)ncnn34)[C@H](O)[C@@H]2O1 (stereo partly shown) [Compound 141]			> 0.5	> 0.5	> 0.5	> 0.5	
CCCC(CCC)C(=O)OC(C)O[P@]1(=O)OC[C@H]2O[C@@](C#N)(c3ccc4c(N)ncnn34)[C@H](O)[C@@H]2O1 (stereo partly shown) [Compound 142]							EC50 [1, 9]: > 0.5 µM; EC90 [1, 9]: > 0.5 µM; EC50 ([2]; read-out: 229E MRC5 CPE assay (μM) EC50; MRC5 cells, 229E virus, 3 days, Cell Titer Glo): > 0.5 µM; EC90 ([2]; read-out: 229E MRC5 CPE assay (μM) EC90; MRC5 cells, 229E virus, 3 days, Cell Titer Glo): > 0.5 µM
CCCC(CCC)C(=O)OCO[P@]1(=S)OC[C@H]2O[C@@](C#N)(c3ccc4c(N)ncnn34)[C@H](O)[C@@H]2O1 [Compound 143]	> 0.5	> 0.5	> 0.5	> 0.5			
CCCC(CCC)C(=O)OCO[P@@]1(=S)OC[C@H]2O[C@@](C#N)(c3ccc4c(N)ncnn34)[C@H](O)[C@@H]2O1 [Compound 144]	> 0.5	> 0.5	> 0.5	> 0.5			
CC(C)OC(=O)OCO[P@@]1(=O)OC[C@H]2O[C@@](C#N)(c3ccc4c(N)ncnn34)[C@H](O)[C@@H]2O1 [Compound 145]			0.1 to 0.5	0.1 to 0.5	< 0.1	0.1 to 0.5	
CC(C)OC(=O)CO[P@]1(=O)OC[C@H]2O[C@@](C#N)(c3ccc4c(N)ncnn34)[C@H](O)[C@@H]2O1 [Compound 146]			> 0.5	> 0.5	> 0.5	> 0.5	
CC(C)OC(=O)CO[P@@]1(=O)OC[C@H]2O[C@@](C#N)(c3ccc4c(N)ncnn34)[C@H](O)[C@@H]2O1 [Compound 147]			> 0.5	> 0.5	> 0.5	> 0.5	
CC(C)OC(=O)CO[P@]1(=S)OC[C@H]2O[C@@](C#N)(c3ccc4c(N)ncnn34)[C@H](O)[C@@H]2O1 [Compound 149]	> 0.5	> 0.5	> 0.5	> 0.5			
CC(C)OC(=O)CO[P@@]1(=S)OC[C@H]2O[C@@](C#N)(c3ccc4c(N)ncnn34)[C@H](O)[C@@H]2O1 [Compound 150]	> 0.5	> 0.5	> 0.5	> 0.5			
